Data: PMC7139549, “TLD1433 Photosensitizer Inhibits Conjunctival Melanoma Cells in Zebrafish Ectopic and Orthotopic Tumour Models” (Cancers, 2020)
Read-outs that look alike come from different tables or passages of the source.

Legend:
Format in all cases: cell-based, Human
[1] = system: CM2005.1 conjunctival melanoma cell line; experiment: SRB cell viability assay, CM2005.1
Protocol: (§1) TLD1433 is known to generate reactive oxygen species (ROS) with high quantum efficacy in many cancer cell lines. However, there is no report of the in vitro toxicity of this compound in eye melanoma (UM) cell lines. We determined the cell viability of three conjunctival melanoma cell lines (CRMM1, CRMM2 and CM2005.1), and three uveal melanoma cell lines (OMM1, OMM2.5, MEL270) in the presence of TLD1433, both in the dark or under green light irradiation (21 mW/cm^2, 19 J/cm^2, 520 nm, 15 min), and compared this viability to epidermoid carcinoma A431 and cutaneous melanoma A375 cell lines under the same conditions. The protocol used was based on previous work from the Bonnet group, and differed slightly from recommendations from McFarland et al.. […] The effective concentration (EC50) values, i.e., the concentration required to reduce cell viability by 50% compared to untreated wells, were assessed by fitting the dose-response curves with a Hill equation. The phototoxicity index (PI), defined as the ratio of the dark EC50 to the light EC50, was also calculated and represents the amplification of TLD1433 activity with a light trigger. […]
(§2) Figure 2 Cell viability after TLD1433 treatment of eight tumour cell lines (CRMM1, CRMM2, CM2005.1, OMM1, OMM2.5, MEL270, A431, A375). […] The absorbance of Sulforhodamine B in solution was measured at 520 nm. […]
(§3) At day 0, cells were detached using 1mL of trypsin, resuspended in 4 mL of media and transferred to a 15 mL corning falcon tube. Cells were counted using trypan blue and BioRad® TC20™ automated cell counter (Figure 11). Dilutions of 6000 (CRMM1), 6000 (CRMM2), 8000 (CM2005.1), 6000 (OMM1), 6000 (OMM2.5), 6000 (MEL270) 8000 (A431), and 4000 (A375) cells/well were calculated from each cell suspension at a final volume of 6 mL using the following formula: Vc=(Vt×10C)/Lc where Vt = total volume of solution, C = number of cells per well/per 100 μL and Lc = live cells count (cells/mL). […] Next day, the dye was dissolved using Tri-base (0.25%) and absorbance of SRB at 510 nm was recorded from each well using a Tecan plate reader. […]

[2] = system: OMM1 uveal melanoma cell line; experiment: SRB cell viability assay, OMM1
Protocol: as §1, §2, §3

[3] = system: CM cells; experiment: SRB cell viability assay, CM cells; conditions: dark EC50 to light EC50
Protocol: (§4) TLD1433 is known to generate reactive oxygen species (ROS) with high quantum efficacy in many cancer cell lines. However, there is no report of the in vitro toxicity of this compound in eye melanoma (UM) cell lines. We determined the cell viability of three conjunctival melanoma cell lines (CRMM1, CRMM2 and CM2005.1), and three uveal melanoma cell lines (OMM1, OMM2.5, MEL270) in the presence of TLD1433, both in the dark or under green light irradiation (21 mW/cm^2, 19 J/cm^2, 520 nm, 15 min), and compared this viability to epidermoid carcinoma A431 and cutaneous melanoma A375 cell lines under the same conditions. […] The phototoxicity index (PI), defined as the ratio of the dark EC50 to the light EC50, was also calculated and represents the amplification of TLD1433 activity with a light trigger. […]
At day 0, cells were detached using 1mL of trypsin, resuspended in 4 mL of media and transferred to a 15 mL corning falcon tube. Cells were counted using trypan blue and BioRad® TC20™ automated cell counter (Figure 11). Dilutions of 6000 (CRMM1), 6000 (CRMM2), 8000 (CM2005.1), 6000 (OMM1), 6000 (OMM2.5), 6000 (MEL270) 8000 (A431), and 4000 (A375) cells/well were calculated from each cell suspension at a final volume of 6 mL using the following formula: Vc=(Vt×10C)/Lc where Vt = total volume of solution, C = number of cells per well/per 100 μL and Lc = live cells count (cells/mL). […]

[4] = system: A431 epidermoid carcinoma cell line; experiment: SRB cell viability assay, A431
Protocol: as §4, §2
At day 0, cells were detached using 1mL of trypsin, resuspended in 4 mL of media and transferred to a 15 mL corning falcon tube. Cells were counted using trypan blue and BioRad® TC20™ automated cell counter (Figure 11). […] Next day, the dye was dissolved using Tri-base (0.25%) and absorbance of SRB at 510 nm was recorded from each well using a Tecan plate reader. […]

Cc1ccnc(-c2cc(C)ccn2)c1.Cc1ccnc(-c2cc(C)ccn2)c1.[Cl-].[Cl-].[Ru+2].c1csc(-c2ccc(-c3ccc(-c4nc5c6cccnc6c6ncccc6c5[nH]4)s3)s2)c1 [TLD1433]
EC50 ([1]; CM2005.1, dark, 24 h treatment, SRB, read-out: EC50, dark): 1100 nM
EC50 ([1]; CM2005.1, green light 520 nm, 15 min, 21 mW/cm^2, 19 J.cm^−2, DLI 24 h, read-out: EC50,light): 5.8 nM
PI (photo index) ([1]; CM2005.1, ratio of dark and light EC50, 19 J.cm^−2 green light): 190
EC50 ([2]; OMM1, dark, 24 h treatment, SRB, read-out: EC50, dark): 1400 nM
EC50 ([2]; OMM1, green light 520 nm, 15 min, 21 mW/cm^2, 19 J.cm^−2, DLI 24 h, read-out: EC50,light): 14 nM
PI (photo index) ([2]; OMM1, ratio of dark and light EC50, 19 J.cm^−2 green light): 100
PI [3]: > 140
EC50 ([4]; A431, dark, 24 h treatment, SRB, read-out: EC50, dark): > 5000 nM
EC50 ([4]; A431, green light 520 nm, 15 min, 21 mW/cm^2, 19 J.cm^−2, DLI 24 h, read-out: EC50,light): 49 nM
